Results taken from patent publication US8222031B2, “Three-dimensional skin model” (Fraunhofer-Gesellschaft zur Foerderung der angewandten …, priority 2000, dated 2012).

Legend:
Format in all cases: cell-based
[1] = tested on: three-dimensional human skin equivalent; experiment: Il1α secretion in media supernatants of skin equivalents by ELISA
Description: (§1) Substances samples were used equivalently for testing on the human skin equivalent. The objective was to study any irritating effect of the samples on the full skin model after 48 hours of incubation time via the EZ4U metabolism. The secretion of Il1α and PGE2 was supposed to be determined in the media supernatants after 24 hours and after 48 hours by ELISA. Different concentrations of SDS were also run as a reference substance. Finally, all tested skin equivalents were fixed, and the morphological structure was tested and evaluated with stained paraffin sections.
(§2) The skin equivalents each were prepared in a 6-well with 1 ml of medium (KBM without hEGF, without BPE, and with 1.8 mM CaCl2). The samples were incubated on the surface of the corresponding skin models according to the following schedule:
(§3) Day 1: Application of 3 μl substance in the morning and in the afternoon.
Day 2: Media replacement and freezing of media supernatants for Il1α und PGE2 determination. […]
(§4) The Il1α and PGE2 content in the media supernatants was determined after 24 hours and 48 hours of incubation of the samples using commercially available ELISA test kits and following their instructions.
The induced secretion of cytokine Il1α was quantified by ELISA first after 24 hours and then after a subsequent, additional incubation for 24 hours with test substances in the media supernatants of the equivalents. […]

[2] = tested on: three-dimensional human skin equivalent; experiment: PGE2 synthesis in media supernatants of skin equivalents by ELISA
Description: as §1, §2, §3
Day 2: Media replacement and freezing of media supernatants for Il1α und PGE2 determination. Treatment with 3 μl substance in the morning and in the afternoon.
Day 3: Freezing of media supernatants for Il1α und PGE2 determination. Determination of cell metabolism in EZ4U test over a period of 2 hours. Fixation of slides and preparation of stained paraffin sections for histological evaluation.
as §4
The synthesis of the PGE2 inflammatory mediator was quantitatively determined by ELISA in the skin model after a first incubation for 24 hours and subsequent second incubation for 24 hours with test substances in the media supernatants of the equivalents. Samples 186-355 as well as different concentrations of SDS were used as test substances.

[3] = tested on: three-dimensional human skin equivalent; experiment: EZ4U test: cell metabolism (cytotoxicity) of skin equivalents
Description: as §1
The skin equivalents each were prepared in a 6-well with 1 ml of medium (KBM without hEGF, without BPE, and with 1.8 mM CaCl2). The samples were incubated on the surface of the corresponding skin models according to the following schedule: […]
The EZ4U test was performed as followed: After 48 hours of incubation, the cell metabolism of the individual skin equivalents was determined photometrically using a vital stain (tetrazolium derivative). […] Turnover kinetics of the negative controls, positive controls, and the equivalents treated with the samples were recorded over a period of 2 hours at 450 nm (with a reference wavelength of 620 nm). […] Both Ec50 and Et50 were determined for SDS. Et50 was determined according to different exposure times from 1% SDS (3 sec, 30 sec, 60 sec, 5 min, 15 min). […]

- Il1α secretion, maximum ([1]; 1% SDS, first 24 h incubation): more than 100 pg/ml per skin equivalent
- Il1α secretion after the second incubation ([1]; SDS, second 24 h incubation): remain overall elevated
- PGE2 synthesis ([2]; 1% SDS, after the first 24 hours): ≥ 4000 pg/ml per skin equivalent
- PGE2 synthesis after the second 24-hour incubation ([2]; SDS, second 24-hour incubation): practically unchanged
- PGE2 synthesis ([2]; up to an SDS concentration of 0.5%): almost unchanged low level
Structure (SMILES): CCCCCCCCCCCCOS(=O)(=O)[O-].[Na+] [SDS]
- Change (in percent) of cell metabolism after 48 hours of incubation, in relation to untreated control (100%) ([3]; AST-2000, SDS 0.73% (Ec50 from dose/effect curve)): 50%
- Ec50 (concentration that causes 50% cell damage; irritation threshold) ([3]; SDS reference, dose/effect curve): 0.73%
